Reference: ChEMBL document CHEMBL1131475, “Discovery of ritonavir, a potent inhibitor of HIV protease with high oral bioavailability and clinical efficacy” (J Med Chem, 1998)
Blank lines part the entries; values can stand above or below the compound they belong to.

Experiments:
[1] = Oral bioavailability in rat; format: ADME, organism-based; conditions: in vivo
Rattus norvegicus = species: Rattus norvegicus; experiment: Plasma T1/2 in rat; format: ADME, organism-based; conditions: in vivo
in vivo [2] = conditions: rat, plasma, po
in vivo [3] = conditions: rat, plasma, po, 10 mg/kg
in vivo [4] = conditions: rat, plasma, po; remark: listed apart in the source
in vivo [5] = conditions: rat, plasma, iv

SMILES: CCN(Cc1csc(C(C)C)n1)C(=O)NC(C)C(=O)N[C@@H](Cc1ccccc1)C[C@H](O)[C@H](Cc1ccccc1)NC(=O)OCc1cncs1 (some centres undefined)
bioavailability [1]: 0%
T1/2 (Rattus norvegicus): Not soluble

SMILES: CC(C)c1nc(COC(=O)NC(C(=O)N[C@@H](Cc2ccccc2)C[C@H](O)[C@H](Cc2ccccc2)NC(=O)OCc2cncs2)C(C)C)cs1 (some centres undefined)
AUC (in vivo [2]): 10 ng·h/mL
Cmax (in vivo [3]): 40 nM
T1/2 (Rattus norvegicus): Not soluble
Tmax (in vivo [4]): 6 min

SMILES: CC(C)c1nc(COC(=O)NC(C(=O)N[C@@H](Cc2ccccc2)[C@@H](O)C[C@H](Cc2ccccc2)NC(=O)OCc2cncs2)C(C)C)cs1 (some centres undefined)
bioavailability [1]: 0%
T1/2 (Rattus norvegicus): Not soluble

SMILES: Cc1ncsc1CCOC(=O)NC(C(=O)N[C@@H](Cc1ccccc1)C[C@H](O)[C@H](Cc1ccccc1)NC(=O)OCc1cccnc1)C(C)C (some centres undefined)
AUC (in vivo [2]): 1530 ng·h/mL
Cmax (in vivo [3]): 960 nM
T1/2 (Rattus norvegicus): Not soluble

SMILES: CC(C)C(NC(=O)OCc1ccccn1)C(=O)N[C@@H](Cc1ccccc1)[C@@H](O)C[C@H](Cc1ccccc1)NC(=O)OCc1ccoc1 (some centres undefined)
AUC (in vivo [2]): 230 ng·h/mL
Cmax (in vivo [3]): 250 nM
T1/2 (Rattus norvegicus): Not soluble
Tmax (in vivo [4]): 16.8 min

SMILES: Cc1cccc(COC(=O)NC(C(=O)N[C@@H](Cc2ccccc2)C[C@H](O)[C@H](Cc2ccccc2)NC(=O)OCc2ccoc2)C(C)C)n1 (some centres undefined)
AUC (in vivo [2]): 20 ng·h/mL
Cmax (in vivo [3]): 160 nM
T1/2 (Rattus norvegicus): Not soluble
Tmax (in vivo [4]): 8.4 min

SMILES: CC(C)C(NC(=O)OCc1csc(N2CCOCC2)n1)C(=O)N[C@@H](Cc1ccccc1)[C@@H](O)C[C@H](Cc1ccccc1)NC(=O)OCc1cncs1 (some centres undefined)
T1/2 (Rattus norvegicus): Not soluble

SMILES: CCN(Cc1csc(C(C)C)n1)C(=O)NC(C(=O)N[C@@H](Cc1ccccc1)C[C@H](O)[C@H](Cc1ccccc1)NC(=O)OCc1cncs1)C(C)C (some centres undefined)
AUC (in vivo [2]): 9850 ng·h/mL
Cmax (in vivo [3]): 3330 nM
T1/2 (Rattus norvegicus): Not soluble
Tmax (in vivo [4]): 228 min

SMILES: CC(C)c1nc(CN(C(=O)NCCC(=O)N[C@@H](Cc2ccccc2)[C@@H](O)C[C@H](Cc2ccccc2)NC(=O)OCc2cncs2)C2CC2)cs1
bioavailability [1]: 9.4%
AUC (in vivo [2]): 400 ng·h/mL
half-life (in vivo [5]): 20.4 min
Cmax (in vivo [3]): 650 nM
Tmax (in vivo [4]): 16.8 min

SMILES: CC(C)C(NC(=O)OCc1ccccn1)C(=O)N[C@@H](Cc1ccccc1)[C@@H](O)C[C@H](Cc1ccccc1)NC(=O)OCc1cncnc1 (some centres undefined)
bioavailability [1]: 6.7%
AUC (in vivo [2]): 280 ng·h/mL
half-life (in vivo [5]): 30 min
Cmax (in vivo [3]): 1180 nM
Tmax (in vivo [4]): 12 min

SMILES: Cc1ncc(COC(=O)N[C@@H](Cc2ccccc2)C[C@H](O)[C@H](Cc2ccccc2)NC(=O)C(NC(=O)N(C)Cc2csc(C(C)C)n2)C(C)C)s1 (some centres undefined)
bioavailability [1]: 28%
AUC (in vivo [2]): 2370 ng·h/mL
half-life (in vivo [5]): 27.6 min
Cmax (in vivo [3]): 2080 nM
Tmax (in vivo [4]): 42 min

SMILES: CC(C)C(NC(=O)OCc1csc(N2CCOCC2)n1)C(=O)N[C@@H](Cc1ccccc1)C[C@H](O)[C@H](Cc1ccccc1)NC(=O)OCc1cncs1 (some centres undefined)
AUC (in vivo [2]): 40 ng·h/mL
Cmax (in vivo [3]): 170 nM
T1/2 (Rattus norvegicus): Not soluble
Tmax (in vivo [4]): 6 min

SMILES: Cc1cncc(COC(=O)NC(C(=O)N[C@@H](Cc2ccccc2)C[C@H](O)[C@H](Cc2ccccc2)NC(=O)OCc2cccnc2)C(C)C)c1 (some centres undefined)
bioavailability [1]: 1.6%
AUC (in vivo [2]): 70 ng·h/mL
half-life (in vivo [5]): 22.8 min
Cmax (in vivo [3]): 330 nM
Tmax (in vivo [4]): 9 min

SMILES: COc1ccc(COC(=O)NC(C(=O)N[C@@H](Cc2ccccc2)[C@@H](O)C[C@H](Cc2ccccc2)NC(=O)OCc2cccnc2)C(C)C)nc1 (some centres undefined)
bioavailability [1]: 7.7%
AUC (in vivo [2]): 380 ng·h/mL
half-life (in vivo [5]): 27.6 min
Cmax (in vivo [3]): 1200 nM
Tmax (in vivo [4]): 12 min

SMILES: Cc1ccc(COC(=O)NC(C(=O)N[C@@H](Cc2ccccc2)C[C@H](O)[C@H](Cc2ccccc2)NC(=O)OCc2cccnc2)C(C)C)cn1 (some centres undefined)
bioavailability [1]: 6.4%
AUC (in vivo [2]): 270 ng·h/mL
half-life (in vivo [5]): 39 min
Cmax (in vivo [3]): 780 nM
Tmax (in vivo [4]): 9 min

SMILES: CC(C)c1nc(CCOC(=O)NC(C(=O)N[C@@H](Cc2ccccc2)[C@@H](O)C[C@H](Cc2ccccc2)NC(=O)OCc2cncs2)C(C)C)cs1 (some centres undefined)
bioavailability [1]: 0%
T1/2 (Rattus norvegicus): Not soluble

SMILES: CC(C)c1nc(CN(C)C(=O)NC(C(=O)N[C@@H](Cc2ccccc2)C[C@H](O)[C@H](Cc2ccccc2)NC(=O)OCc2cnco2)C(C)C)cs1 (some centres undefined)
bioavailability [1]: 23%
AUC (in vivo [2]): 2650 ng·h/mL
half-life (in vivo [5]): 33.6 min
Cmax (in vivo [3]): 1590 nM
Tmax (in vivo [4]): 34.8 min

SMILES: CC(C)C(NC(=O)N(C)Cc1ccccn1)C(=O)N[C@@H](Cc1ccccc1)C[C@H](O)[C@H](Cc1ccccc1)NC(=O)OCc1cncnc1 (some centres undefined)
bioavailability [1]: 5.1%
AUC (in vivo [2]): 220 ng·h/mL
half-life (in vivo [5]): 52.2 min
Cmax (in vivo [3]): 910 nM
Tmax (in vivo [4]): 18 min

SMILES: CC(C)c1nc(CN(C)C(=O)NC(C(=O)N[C@@H](Cc2ccccc2)C[C@H](O)[C@H](Cc2ccccc2)NC(=O)OCc2ccno2)C(C)C)co1 (some centres undefined)
bioavailability [1]: 3.8%
AUC (in vivo [2]): 180 ng·h/mL
half-life (in vivo [5]): 24 min
Cmax (in vivo [3]): 490 nM
Tmax (in vivo [4]): 6 min

SMILES: CC(C)C(NC(=O)OCc1ccccn1)C(=O)N[C@@H](Cc1ccccc1)[C@@H](O)C[C@H](Cc1ccccc1)NC(=O)OCc1cncs1 (some centres undefined)
AUC (in vivo [2]): 1490 ng·h/mL
Cmax (in vivo [3]): 2980 nM
T1/2 (Rattus norvegicus): Not soluble
Tmax (in vivo [4]): 8.4 min

SMILES: CC(NC(=O)N(Cc1csc(C(C)C)n1)C1CC1)C(=O)N[C@@H](Cc1ccccc1)C[C@H](O)[C@H](Cc1ccccc1)NC(=O)OCc1cncs1 (some centres undefined)
bioavailability [1]: 76%
AUC (in vivo [2]): 12000 ng·h/mL
half-life (in vivo [5]): 36.6 min
Cmax (in vivo [3]): 5190 nM
Tmax (in vivo [4]): 108 min

SMILES: CC(NC(=O)OCc1csc(C(C)C)n1)C(=O)N[C@@H](Cc1ccccc1)C[C@H](O)[C@H](Cc1ccccc1)NC(=O)OCc1cncs1 (some centres undefined)
bioavailability [1]: 19%
AUC (in vivo [2]): 1230 ng·h/mL
half-life (in vivo [5]): 31.8 min
Cmax (in vivo [3]): 1090 nM
Tmax (in vivo [4]): 24 min

SMILES: Cc1ncc(COC(=O)NC(C(=O)N[C@@H](Cc2ccccc2)C[C@H](O)[C@H](Cc2ccccc2)NC(=O)OCc2cccnc2)C(C)C)nc1C (some centres undefined)
bioavailability [1]: 10%
AUC (in vivo [2]): 480 ng·h/mL
half-life (in vivo [5]): 25.8 min
Cmax (in vivo [3]): 2060 nM
Tmax (in vivo [4]): 6 min

SMILES: Cc1cnc(COC(=O)NC(C(=O)N[C@@H](Cc2ccccc2)C[C@H](O)[C@H](Cc2ccccc2)NC(=O)OCc2cccnc2)C(C)C)cn1 (some centres undefined)
bioavailability [1]: 6%
AUC (in vivo [2]): 190 ng·h/mL
half-life (in vivo [5]): 12.6 min
Cmax (in vivo [3]): 860 nM
Tmax (in vivo [4]): 18 min

SMILES: CC(C)c1cccc(COC(=O)NC(C(=O)N[C@@H](Cc2ccccc2)C[C@H](O)[C@H](Cc2ccccc2)NC(=O)OCc2cccnc2)C(C)C)n1 (some centres undefined)
bioavailability [1]: 5.6%
AUC (in vivo [2]): 140 ng·h/mL
half-life (in vivo [5]): 34.2 min
Cmax (in vivo [3]): 200 nM
Tmax (in vivo [4]): 15 min

Continued, values first:

bioavailability [1]: 9.5%
AUC (in vivo [2]): 420 ng·h/mL
half-life (in vivo [5]): 29.4 min
Cmax (in vivo [3]): 990 nM
Tmax (in vivo [4]): 6 min
SMILES: CCc1nc(COC(=O)NC(C(=O)N[C@@H](Cc2ccccc2)[C@@H](O)C[C@H](Cc2ccccc2)NC(=O)OCc2cccnc2)C(C)C)cs1 (some centres undefined)

bioavailability [1]: 2.1%
AUC (in vivo [2]): 60 ng·h/mL
half-life (in vivo [5]): 21 min
Cmax (in vivo [3]): 310 nM
Tmax (in vivo [4]): 12 min
SMILES: Cc1ccc(CN(C)C(=O)NC(C(=O)N[C@@H](Cc2ccccc2)C[C@H](O)[C@H](Cc2ccccc2)NC(=O)OCc2cccnc2)C(C)C)cn1 (some centres undefined)

bioavailability [1]: 20%
AUC (in vivo [2]): 870 ng·h/mL
half-life (in vivo [5]): 44.4 min
Cmax (in vivo [3]): 1460 nM
Tmax (in vivo [4]): 12 min
SMILES: CCc1nc(CN(C)C(=O)NC(C(=O)N[C@@H](Cc2ccccc2)[C@@H](O)C[C@H](Cc2ccccc2)NC(=O)OCc2cccnc2)C(C)C)cs1 (some centres undefined)

bioavailability [1]: 12%
AUC (in vivo [2]): 530 ng·h/mL
half-life (in vivo [5]): 61.8 min
Cmax (in vivo [3]): 980 nM
Tmax (in vivo [4]): 19.8 min
SMILES: CC(C)c1nc(CN(C)C(=O)NC(C(=O)N[C@@H](Cc2ccccc2)C[C@H](O)[C@H](Cc2ccccc2)NC(=O)OCc2cccnc2)C(C)C)cs1 (some centres undefined)

bioavailability [1]: 16%
AUC (in vivo [2]): 1240 ng·h/mL
half-life (in vivo [5]): 33.6 min
Cmax (in vivo [3]): 2290 nM
Tmax (in vivo [4]): 30 min
SMILES: COCc1nc(CN(C)C(=O)NC(C(=O)N[C@@H](Cc2ccccc2)[C@@H](O)C[C@H](Cc2ccccc2)NC(=O)OCc2cccnc2)C(C)C)cs1 (some centres undefined)

bioavailability [1]: 17%
AUC (in vivo [2]): 550 ng·h/mL
half-life (in vivo [5]): 18 min
Cmax (in vivo [3]): 1520 nM
Tmax (in vivo [4]): 9 min
SMILES: Cc1ncc(CN(C)C(=O)NC(C(=O)N[C@@H](Cc2ccccc2)[C@@H](O)C[C@H](Cc2ccccc2)NC(=O)OCc2cccnc2)C(C)C)nc1C (some centres undefined)

bioavailability [1]: 9%
AUC (in vivo [2]): 410 ng·h/mL
half-life (in vivo [5]): 54.6 min
Cmax (in vivo [3]): 320 nM
Tmax (in vivo [4]): 6 min
SMILES: CC(C)c1nc(CCC(=O)NC(C(=O)N[C@@H](Cc2ccccc2)[C@@H](O)C[C@H](Cc2ccccc2)NC(=O)OCc2cccnc2)C(C)C)cs1 (some centres undefined)

bioavailability [1]: 6.7%
AUC (in vivo [2]): 290 ng·h/mL
half-life (in vivo [5]): 26.4 min
Cmax (in vivo [3]): 1220 nM
Tmax (in vivo [4]): 6 min
SMILES: Cc1ccc(CN(C)C(=O)NC(C(=O)N[C@@H](Cc2ccccc2)[C@@H](O)C[C@H](Cc2ccccc2)NC(=O)OCc2cccnc2)C(C)C)cn1 (some centres undefined)

bioavailability [1]: 35%
AUC (in vivo [2]): 2050 ng·h/mL
half-life (in vivo [5]): 32.4 min
Cmax (in vivo [3]): 3330 nM
Tmax (in vivo [4]): 10.8 min
SMILES: CC(C)C(NC(=O)OCc1nccs1)C(=O)N[C@@H](Cc1ccccc1)[C@@H](O)C[C@H](Cc1ccccc1)NC(=O)OCc1cccnc1 (some centres undefined)

bioavailability [1]: 7.9%
AUC (in vivo [2]): 310 ng·h/mL
half-life (in vivo [5]): 19.2 min
Cmax (in vivo [3]): 1830 nM
Tmax (in vivo [4]): 6 min
SMILES: COc1ccc(CN(C)C(=O)NC(C(=O)N[C@@H](Cc2ccccc2)[C@@H](O)C[C@H](Cc2ccccc2)NC(=O)OCc2cccnc2)C(C)C)cn1 (some centres undefined)

bioavailability [1]: 24%
AUC (in vivo [2]): 950 ng·h/mL
half-life (in vivo [5]): 45 min
Cmax (in vivo [3]): 1650 nM
Tmax (in vivo [4]): 15 min
SMILES: CC(C)c1nc(CN(C)C(=O)NC(C(=O)N[C@@H](Cc2ccccc2)[C@@H](O)C[C@H](Cc2ccccc2)NC(=O)OCc2cccnc2)C(C)C)cs1 (some centres undefined)

bioavailability [1]: 3%
AUC (in vivo [2]): 220 ng·h/mL
half-life (in vivo [5]): 40.8 min
Cmax (in vivo [3]): 470 nM
Tmax (in vivo [4]): 15 min
SMILES: CC(C)c1nc(COC(=O)NC(C(=O)N[C@@H](Cc2ccccc2)[C@@H](O)C[C@H](Cc2ccccc2)NC(=O)OCc2cccnc2)C(C)C)cs1 (some centres undefined)
